Patent US20250214896A1, “THIOL / SULFIDE CONTAINING CONCRETE COMPOSITION” (Yarmouk University, priority 2024, published 2025)

Assays:
physchem = experiment: physchem
From the text: The reduction attributes of these compounds are subject to pH conditions, specifically, in the alkaline media of the cement mixture where the pH is around 12.

[1] = Dimerization of thiol monomers under oxidizing conditions, evaluated by reverse-phase HPLC; assay type: physicochemical; conditions: about 0.56 M thiol, 10% NaOH, 3.0% hydrogen peroxide
Experimental: In this example, reference will be made to FIGS. 1 and 2. In this example, the role of thiol group was evaluated by oxidizing the monomers generating a dimer. About 10% by volume aqueous NaOH solution was added to about 0.56 M of mercapto (thiol) series (cysteine, cysteine methyl ester, beta-mercaptoethanol, and dithiothreitol), then a […] step was performed using about 3.0% by volume aqueous solution of hydrogen peroxide. Subsequently, centrifugation was performed at about 3000 rpm for about 5 minutes, then the supernatant was discarded and the pellets were recrystallized followed by rinsing with a few drops of cold water.
The dimerization process was evaluated using reverse-phase HPLC. For the analysis, about 5 μL injection volume was used. The mobile phase consisted of a mixture of acetonitrile and water in a ratio of about 65:35. […] Two distinct peaks were identified at distinct retention times.
The modification of the carboxylic group to a methyl ester increased the acidity of the ammonium protons relative to the thiol protons. […] The inhibitory effect of the ester group on disulfide bond formation was attributed to the presence of the methyl ester group in cysteine methyl ester.

Which pKa (physchem; pKa of the first SH) does the source give for `O[C@H](CS)[C@H](O)CS` (racemic) [dithiothreitol] here?
The pKa was 8.12.

And the pKa (physchem; pKa of the second SH)?
Its pKa is 8.72.

For `OCC(O)C(S)CS` (stereo not drawn) [3,4-disulfanylbutane-1,2-diol, 3,4-disulfanyl-butane-1,2-diol], which pKa (physchem; pKa of the primary OH) is on record?
Its pKa is 15.8.

And the pKa (physchem; pKa of the primary SH)?
The pKa was 8.93.

And the pKa (physchem; pKa of the secondary OH)?
Its pKa is 14.3.

What about the pKa (physchem; pKa of the secondary SH) of the same compound?
The pKa was 7.98.

Which results are given for `OCC(S)CS` (stereo not drawn) [2,3-disulfanylpropan-1-ol]?
pKa (physchem; pKa of the OH): 15.8; pKa (physchem; pKa of the primary SH): 8.95; pKa (physchem; pKa of the secondary SH): 8.05

With β-mercapto ethanol [β-mercaptoethanol] as the compound, how does the “pKa of the OH” value (physchem) read?
Its value is 16.25.

And the “pKa of the SH” value (physchem)?
Its value is 8.51.

Which pKa (physchem) does the source give for `COC(=O)[C@@H](N)CS` [cysteine methyl ester] here?
Its pKa is 6.86.

What about the pKa (physchem; pKa of the NH2) of the same compound?
The pKa was 7.93.

What about the “dimer (disulfide) formation on oxidation” value [1] of the same compound?
The value was “unable to form a dimer”.

With `N[C@@H](CS)C(=O)O` [cysteine] as the compound, how does the pKa (physchem; pKa of the COOH) read?
The pKa was 2.35.

And the pKa (physchem; pKa of the NH2)?
The pKa was 9.54.

And the pKa (physchem; pKa of the SH)?
The pKa was 6.61.

And the “dimer (disulfide) formation on oxidation” value [1]?
The value was “successful formation of cysteine dimer”.
